# According to patent US5462926A (Biomeasure, Inc., priority 1993, dated 1995):
# Like-named read-outs stand apart in the source and are kept apart here. Where a SMILES comes first, the peptide text is derived from it. Bridges are numbered along the chain shown (N, C = ends). [ ]: non-standard residue; d: D form. 2Nal = N[C@@H](Cc1ccc2ccccc2c1)C(=O)O; d2Nal = N[C@H](Cc1ccc2ccccc2c1)C(=O)O
# Legend:
# [1] = target: T1, NMB receptors on C-6 cells (Rattus norvegicus, UniProt P24053); experiment: Binding of 125I-[D-Tyr0]NMB to C-6 glioblastoma cells; conditions: for Ki: Ki by Cheng method, read-out: Ki 125I-NMB Binding, NMB Receptor, C-6 Cells
# T1 construct: endogenous in cells; host or cells: rat glioblastoma C-6 cells
# T1 sequence (P24053 1-390): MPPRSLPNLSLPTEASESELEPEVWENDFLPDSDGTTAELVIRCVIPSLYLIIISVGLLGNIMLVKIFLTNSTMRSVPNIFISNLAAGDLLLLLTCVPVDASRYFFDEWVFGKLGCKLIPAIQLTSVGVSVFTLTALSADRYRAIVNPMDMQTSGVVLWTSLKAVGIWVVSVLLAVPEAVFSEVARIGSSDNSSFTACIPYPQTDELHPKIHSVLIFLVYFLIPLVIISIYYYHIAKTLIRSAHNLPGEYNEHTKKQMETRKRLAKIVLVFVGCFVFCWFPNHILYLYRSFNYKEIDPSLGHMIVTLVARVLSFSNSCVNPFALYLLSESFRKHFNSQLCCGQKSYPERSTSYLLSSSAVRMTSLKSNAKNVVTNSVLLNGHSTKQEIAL
# Procedure: Binding of ^125 I-[D-Tyr^0 ]NMB to C-6 glioblastoma and NMB-R transfected cells
# Binding studies using rat glioblastoma C-6 or NMB-R transfected cells were performed as described previously [Benya, R. V. et al. Mol. Pharmacol. 42:1058 (1992); and Wang, L-H. et al. Biochem. J. 286:641 (1992)] by suspending disaggregated cells in binding buffer, which was composed of standing buffer ([…], 7.7 mM KCl, 1.0 mM EGTA, 0.02% soybean trypsin inhibitor) additionally containing 50 mM HEPES, 1 mM MgCl2, 1.5 mM CaCl2, 2.2 mM KH2 PO4, 0,015% glutamine, and 0.2% BSA (w/v) (pH 7.4). Incubations contained 75 pM ^125 I-[D-Tyr^0 ]NMB and 15×10^6 C-6 cells/ml or 2×10^6 NMB-R transfected cells/ml, for 60 min at 22° C. Nonsaturable binding of ^125 I-[D-Tyr^0 ]NMB was the amount of radioactivity associated with C-6 cells or NMB-R transfected cells when the incubation mixture contained […] NMB. Nonsaturable binding was<15% of total binding in all experiments; all values are reported herein as saturable binding (i.e., total minus nonsaturable binding).
# rat NMB receptor = target: T2, rat NMB receptor (Rattus norvegicus, UniProt P24053); experiment: Binding of 125I-[D-Tyr0]NMB to NMB-R transfected BALB 3T3 cells; conditions: for fold decrease in NMB receptor affinity compared with cyclo SS-octa (#1): structure-function comparison from Table 1
# T2 construct: a full length NMB-preferring bombesin receptor clone generated from rat esophagus; expressed in transfected cells
# T2 sequence (P24053 1-390): T1 sequence (P24053 1-390)
# Procedure: (§1) Cells were passaged every 3-4 days at confluence, using 0.1% trypsin in 1 mM EDTA. Rat glioblastoma C-6 tumor cells were maintained similarly and were passaged weekly at confluence. Both cell lines were cultured at 37° C. in a 5% CO2 atmosphere. Rat AR 42J pancreatic acinar cells were cultured in Dulbecco's modified Eagle's medium (DMEM) without antibiotics and supplemented with 10% (vol/vol) fetal calf serum. The incubation atmosphere consisted of 10% CO2 -90% humidified air at 37° C.
# mu opioid receptors = target: T3, mu opioid receptors (Rattus norvegicus, UniProt P33535); experiment: Mu opioid membrane assay, [3H]DAGO, rat forebrain membranes; assay type: binding
# T3 construct: rat forebrain (TRH, mu and delta opioid membrane assays); from tissue; host or cells: rat forebrain membranes
# T3 sequence (P33535 whole entry): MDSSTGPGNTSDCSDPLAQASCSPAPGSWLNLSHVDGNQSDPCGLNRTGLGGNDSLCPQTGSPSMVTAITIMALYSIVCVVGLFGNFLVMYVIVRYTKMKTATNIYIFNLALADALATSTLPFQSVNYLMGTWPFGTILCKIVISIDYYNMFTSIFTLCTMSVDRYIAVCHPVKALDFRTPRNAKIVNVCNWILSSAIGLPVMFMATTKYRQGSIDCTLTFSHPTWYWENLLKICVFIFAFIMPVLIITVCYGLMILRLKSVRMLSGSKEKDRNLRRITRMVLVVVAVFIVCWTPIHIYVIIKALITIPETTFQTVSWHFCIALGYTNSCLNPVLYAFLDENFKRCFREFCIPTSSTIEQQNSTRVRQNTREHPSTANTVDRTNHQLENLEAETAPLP
# GRP receptor = GRP receptor (Rattus norvegicus, UniProt P52500); experiment: GRP membrane receptor assay, 125I-[Tyr4]Bn, AR 42J cell membranes; assay type: binding; set-up: endogenous in cells; host or cells: rat AR 42J pancreatic acinar tumor cell membranes; conditions: read-out: affinity, 125I-[Tyr4]Bn, AR 42J Cell Membranes (GRP receptors); Cheng method; unit inferred
# Sequence of GRP receptor (P52500 whole entry): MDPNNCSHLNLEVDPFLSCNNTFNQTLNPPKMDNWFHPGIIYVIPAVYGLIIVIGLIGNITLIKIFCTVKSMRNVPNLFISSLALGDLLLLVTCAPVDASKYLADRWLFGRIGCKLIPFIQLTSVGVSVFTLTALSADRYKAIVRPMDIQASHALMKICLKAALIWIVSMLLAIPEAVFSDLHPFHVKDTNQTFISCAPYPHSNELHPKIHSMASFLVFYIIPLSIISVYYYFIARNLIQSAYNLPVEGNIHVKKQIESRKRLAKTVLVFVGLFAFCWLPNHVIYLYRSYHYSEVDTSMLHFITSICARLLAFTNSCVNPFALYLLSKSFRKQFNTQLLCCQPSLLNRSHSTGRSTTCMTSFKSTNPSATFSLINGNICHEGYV
# NMB receptor = target: T4, NMB receptor (Rattus norvegicus, UniProt P24053); experiment: [3H]inositol phosphates in NMB-R transfected cells (alone or NMB-stimulated); assay type: cell-based; set-up: a full length NMB-preferring bombesin receptor clone generated from rat esophagus; expressed in transfected cells; conditions: NMB-R transfected cells; for [3H]IP, analog Alone (10 μM): analog 10 μM alone, control 13 ± 3; for [3H]IP, analog Plus NMB (3 nM): analog 10 μM plus NMB 3 nM, NMB without analog 186 ± 58
# T4 sequence (P24053 1-390): T1 sequence (P24053 1-390)
# Procedure: as §1, with “As described previously [Wada, E., et al. Neuron 6:421 (1991)], BALB 3T3 cells expressing a stably transfected rat NMB receptor (NMB-R transfected cells) were obtained using calcium phosphate precipitation of a full length NMB-preferring bombesin receptor clone generated from rat esophagus and subcloned into a modified version of the pCD2 plasmid. Cells” for “Cells”
# Measurement of phosphoinositides
# Total phosphoinositides in C-6 cells and in NMB-R transfected cells were determined as described previously, with minor modifications [Benya, R. V. et al. Mol. Pharmacol. 42:1058 (1992); and Wang, L-H. et al. Biochem. Jo 286:641 (1992)]. Cells were grown to confluence in 24-well plates and then loaded with 100 μCi/ml myo-[2-^3 H]inositol in Dulbecco's modified essential medium with 2% fetal bovine serum at 37° C. for 48 hrs. Cells were washed and incubated in phosphoinositide buffer (standard buffer additionally containing 10 mM LiCl, 20 mM HEPES, 2 mM CaCl2, 2% BSA, and 1.2 mM MgSO4) for 15 min and then for 60 min at 37° C. with agonists at various concentrations or with 3 nM NMB (a half-maximal effective concentration) and possible antagonists at different concentrations. Reactions were halted using ice-cold 1% HCl in methanol, and the inositol phosphates (IP) were isolated as described previously [Bologna, M. et al. Cancer 63:1714 (1989); and Endo, T. et al. J. Endocrinolo 131:313 (1991)]. Briefly, after loading of the anion exchange column, free [^3 H]glycerophosphorylinositol was removed by washing with 5 mM disodium tetraborate in 60 mM sodium formate. Total [^3 H]inositol phosphates were then eluted using 100 mM formic acid in 1.0M ammonium formate as described previously [Benya, R. V. et al. Mol. Pharmacol. 42:1058 (1992); and Wang, L-H. et al. Biochem. J. 286:641 (1992 )].
# [2] = NMB-R transfected BALB 3T3 cells, Ki by Cheng method, read-out: Ki 125I-NMB Binding, NMB Receptor, Transfected Cells
# [3] = 3 nM NMB, read-out: IC50 NMB-stimulated [3H]IP, NMB Receptor, Transfected Cells
# [4] = Cheng method, unit inferred, read-out: affinity, [3H]DAGO, Rat Forebrain membranes (mu opioid receptors)
# [5] = NMB-R transfected cells, value or range given for a group, read-out: K1, 125I-NMB binding to NMB-R transfected cells (text)
Compound,Ki [1],Ki (rat NMB receptor; [2]),Ki (GRP receptor),IC50 (NMB receptor; [3]),"[3H]IP, analog Alone (10 μM) (NMB receptor)","[3H]IP, analog Plus NMB (3 nM) (NMB receptor)",fold decrease in NMB receptor affinity compared with cyclo SS-octa (#1) (rat NMB receptor),Ki (mu opioid receptors; [4]),"fold by which cyclo SS-octa is more potent than the analog, 125I-NMB binding (rat NMB receptor; NMB-R transfected cells)",Ki (rat NMB receptor; [5]),other results
"CC(C)[C@@H]1NC(=O)[C@H](CCCCN)NC(=O)[C@@H](Cc2c[nH]c3ccccc23)NC(=O)[C@H](Cc2ccc(O)cc2)NC(=O)[C@@H](NC(=O)[C@H](N)Cc2ccc3ccccc3c2)CSSC[C@@H](C(=O)N[C@@H](Cc2ccc3ccccc3c2)C(N)=O)NC1=O [Analog #1, H2 -D-Nal-Cys-Tyr-D-Trp-Lys-Val-Cys-Nal-NH2] (H-[d2Nal]CY[dW]KVC[2Nal]-NH2; disulfide 2-7)",59 ± 9 nM,216 ± 36 nM,2870 ± 520 nM,0.895 ± 0.098 µM,12 ± 2 dym × 10^3,8 ± 4 dym × 10^3,,,,,"Kd ([1]; read-out: Kd, inhibition of 125I-[D-Tyr0]NMB binding, glioblastoma C-6 cells): 59 nM; Kd (rat NMB receptor; NMB-R transfected 3T3 cells, read-out: Kd, inhibition of 125I-[D-Tyr0]NMB binding, NMB-R transfected 3T3 cells): 216 nM; concentration causing complete inhibition of 125I-NMB binding (rat NMB receptor; NMB-R transfected cells): 3 µM; concentration causing detectible inhibition of 125I-NMB binding (rat NMB receptor; NMB-R transfected cells): 0.1 µM; type of antagonism (rat NMB receptor; NMB-R transfected cells, 0.5 μM): competitive antagonist; IC50 (rat NMB receptor; NMB-R transfected cells, read-out: half-maximal inhibition of 125I-NMB binding): 216 nM; Ki (mu opioid receptors; rat forebrain membranes, read-out: affinity, inhibition of [3H]DAGO binding to mu opioid receptors): 430 ± 130 nM; concentration causing detectible inhibition of NMB-stimulated [3H]IP (NMB receptor): 0.3 µM; effect at 10 μM on NMB-stimulated increase in [3H]IP (NMB receptor; 10 μM, 3 nM NMB): completely inhibited; slope of Schild regression (NMB receptor; not significantly different from unity): 1.1(+0.2)"
"C[C@@H](O)[C@H](NC(=O)[C@@H]1CSSC[C@H](NC(=O)[C@H](N)Cc2ccc3ccccc3c2)C(=O)N[C@@H](Cc2ccc(O)cc2)C(=O)N[C@H](Cc2c[nH]c3ccccc23)C(=O)N[C@@H](CCCCN)C(=O)N[C@@H](Cc2ccc3ccccc3c2)C(=O)N1)C(N)=O [Analog #2, H2 -D-Nal-Cys-Tyr-D-Trp-Lys-Nal-Cys-Thr-NH2]",226 ± 36 nM,772 ± 94 nM,950 ± 70 nM,6.67 ± 0.435 µM,11 ± 2 dym × 10^3,39 ± 7 dym × 10^3,4 fold,1.9 ± 0.7 nM,,,
"CC(C)[C@@H]1NC(=O)[C@H](CCCCN)NC(=O)[C@@H](Cc2c[nH]c3ccccc23)NC(=O)[C@H](Cc2ccc(O)cc2)NC(=O)[C@@H](NC(=O)[C@H](N)Cc2ccccc2)CSSC[C@@H](C(=O)N[C@@H](Cc2ccc3ccccc3c2)C(N)=O)NC1=O [Analog #4, H2 -D-Phe-Cys-Tyr-D-Trp-Lys-Val-Cys-Nal-NH2] (H-[dF]CY[dW]KVC[2Nal]-NH2; disulfide 2-7)",848 ± 191 nM,818 ± 68 nM,2000 ± 150 nM,3.76 ± 0.568 µM,13 ± 1 dym × 10^3,33 ± 4 dym × 10^3,4 to 7 fold,650 ± 130 nM,,,
"C[C@@H](O)[C@@H]1NC(=O)[C@H](CCCCN)NC(=O)[C@@H](Cc2c[nH]c3ccccc23)NC(=O)[C@H](Cc2ccc(O)cc2)NC(=O)[C@@H](NC(=O)[C@H](N)Cc2ccccc2)CSSC[C@@H](C(=O)N[C@@H](Cc2ccc3ccccc3c2)C(N)=O)NC1=O [Analog #7, H2 -D-phe-Cys-Tyr-D-Trp-Lys-Thr-Cys-Nal-NH2] (H-[dF]CY[dW]KTC[2Nal]-NH2; disulfide 2-7)",1450 ± 78 nM,4360 ± 328 nM,750 ± 10 nM,36.2 ± 4.97 µM,15 ± 1 dym × 10^3,99 ± 24 dym × 10^3,,200 nM,18 fold,3900 to 4400 nM,"IC50 (NMB receptor; 3 nM NMB, read-out: IC50 NMB-stimulated [3H]IP, Transfected Cells (values in μM)): > 10 µM"
"CC(C)[C@@H]1NC(=O)[C@H](CCCCN)NC(=O)[C@@H](Cc2c[nH]c3ccccc23)NC(=O)[C@H](Cc2ccc(O)cc2)NC(=O)[C@@H](NC(=O)[C@H](N)Cc2ccc3ccccc3c2)CSSC[C@@H](C(=O)N[C@H](Cc2ccc3ccccc3c2)C(N)=O)NC1=O [Analog #8, H2 -D-Nal-Cys-Tyr-D-Trp-Lys-Val-Cys-D-Nal-NH2] (H-[d2Nal]CY[dW]KVC[d2Nal]-NH2; disulfide 2-7)",670 ± 73 nM,1920 ± 201 nM,4100 ± 750 nM,5.19 ± 0.987 µM,10 ± 3 dym × 10^3,67 ± 13 dym × 10^3,6 fold,280 nM,9 fold,1400 to 2300 nM,
"CC(C)[C@@H]1NC(=O)[C@H](CCCCN)NC(=O)[C@@H](Cc2c[nH]c3ccccc23)NC(=O)[C@H](Cc2ccc(O)cc2)NC(=O)[C@@H](NC(=O)[C@@H](N)Cc2ccc3ccccc3c2)CSSC[C@@H](C(=O)N[C@H](Cc2ccc3ccccc3c2)C(N)=O)NC1=O [Analog #9, H2 -Nal-Cys-Tyr-D-Trp-Lys-Val-Cys-D-Nal-NH2] (H-[2Nal]CY[dW]KVC[d2Nal]-NH2; disulfide 2-7)",1160 ± 214 nM,1160 ± 229 nM,1540 ± 180 nM,4.41 ± 0.451 µM,8 ± 2 dym × 10^3,28 ± 6 dym × 10^3,,1160 nM,,,
